Laboratory results as given in ChEMBL document CHEMBL3745631, “Discovery of highly potent and selective Bruton's tyrosine kinase inhibitors: Pyridazinone analogs with improved metabolic stability” (Bioorg Med Chem Lett, 2016).

Key:
Liver microsome = assay: Intrinsic clearance in human liver microsomes at 1 uM by LC-MS/MS analysis in absence of NADPH; format: ADME
[1] = Cytotoxicity against human T cells assessed as cell proliferation
[2] = Oral bioavailability in mouse at 5 mg/kg by LC-MS/MS analysis; format: ADME, organism-based; conditions: in vivo
[3] = target: Tyrosine-protein kinase Tec (Homo sapiens) (UniProt P42680); assay: Inhibition of TEC (unknown origin) at 1 uM
[4] = target: Tyrosine-protein kinase Fgr (Homo sapiens, UniProt P09769); assay: Inhibition of FGR (unknown origin) at 1 uM
[5] = target: Serine/threonine-protein kinase PAK 4 (Homo sapiens) (UniProt O96013); assay: Inhibition of PAK4 (unknown origin) at 1 uM
[6] = target: Phosphatidylinositol 4,5-bisphosphate 3-kinase catalytic subunit alpha isoform (Homo sapiens) (UniProt P42336); assay: Inhibition of PI3KA (unknown origin) at 1 uM
[7] = target: Mast/stem cell growth factor receptor Kit (Homo sapiens) (UniProt P10721); assay: Inhibition of Kit (unknown origin) at 1 uM
[8] = target: Fibroblast growth factor receptor 3 (Homo sapiens) (UniProt P22607); assay: Inhibition of FGFR3 (unknown origin) at 1 uM
[9] = target: Maternal embryonic leucine zipper kinase (Homo sapiens, UniProt Q14680); assay: Inhibition of MELK (unknown origin)
hERG (KCNH2) = hERG (KCNH2) (Homo sapiens, UniProt Q12809); assay: Inhibition of human ERG at 10 uM
[10] = target: Dual specificity tyrosine-phosphorylation-regulated kinase 3 (Homo sapiens) (UniProt O43781); assay: Inhibition of DYRK3 (unknown origin) at 1 uM
[11] = target: Ephrin type-B receptor 1 (Homo sapiens) (UniProt P54762); assay: Inhibition of EphB1 (unknown origin) at 1 uM
[12] = target: Dual specificity mitogen-activated protein kinase kinase 6 (Homo sapiens) (UniProt P52564); assay: Inhibition of MKK6 (unknown origin) at 1 uM
[13] = target: Serine/threonine-protein kinase 25 (Homo sapiens) (UniProt O00506); assay: Inhibition of YSK1 (unknown origin) at 1 uM
[14] = target: Serine/threonine-protein kinase Chk2 (Homo sapiens) (UniProt O96017); assay: Inhibition of CHK2 (unknown origin) at 1 uM
[15] = target: Tyrosine-protein kinase Mer (Homo sapiens) (UniProt Q12866); assay: Inhibition of Mer (unknown origin) at 1 uM
[16] = target: Dual specificity protein kinase CLK3 (Homo sapiens) (UniProt P49761); assay: Inhibition of CLK3 (unknown origin) at 1 uM
[17] = target: Tyrosine-protein kinase receptor TYRO3 (Homo sapiens) (UniProt Q06418); assay: Inhibition of Rse (unknown origin) at 1 uM
[18] = target: Calcium/calmodulin-dependent protein kinase type IV (Homo sapiens) (UniProt Q16566); assay: Inhibition of CamK4(unknown origin) at 1 uM
[19] = target: Inhibitor of nuclear factor kappa-B kinase subunit beta (Homo sapiens) (UniProt O14920); assay: Inhibition of IKKbeta (unknown origin) at 1 uM
[20] = target: MAP kinase-activated protein kinase 5 (Homo sapiens) (UniProt Q8IW41); assay: Inhibition of PRAK (unknown origin) at 1 uM
[21] = target: CDK8/Cyclin C (Homo sapiens) (UniProt P49336+P24863); assay: Inhibition of CDK8/cyclinC (unknown origin) at 1 uM; format: protein-complex assay
[22] = target: Mitogen-activated protein kinase 14 (Homo sapiens) (UniProt Q16539); assay: Inhibition of p38alpha (unknown origin) at 1 uM
[23] = target: Casein kinase II subunit alpha (Homo sapiens) (UniProt P68400); assay: Inhibition of CK2 alpha1 (unknown origin) at 1 uM
[24] = target: Mitogen-activated protein kinase kinase kinase 20 (Homo sapiens) (UniProt Q9NYL2); assay: Inhibition of ZAK (unknown origin) at 1 uM
[25] = target: Ribosomal protein S6 kinase alpha-1 (Homo sapiens) (UniProt Q15418); assay: Inhibition of Rsk1 (unknown origin) at 1 uM
[26] = target: Interleukin-1 receptor-associated kinase 1 (Homo sapiens) (UniProt P51617); assay: Inhibition of IRAK1 (unknown origin) at 1 uM
[27] = target: Serine/threonine-protein kinase PAK 3 (Homo sapiens) (UniProt O75914); assay: Inhibition of PAK3 (unknown origin) at 1 uM
[28] = target: Serine/threonine-protein kinase 16 (Homo sapiens) (UniProt O75716); assay: Inhibition of STK16 (unknown origin) at 1 uM
[29] = target: MAP kinase-activated protein kinase 2 (Homo sapiens) (UniProt P49137); assay: Inhibition of MAPKAPK2 (unknown origin) at 1 uM
[30] = target: Mitogen-activated protein kinase 10 (Homo sapiens) (UniProt P53779); assay: Inhibition of JNK3 (unknown origin) at 1 uM
[31] = target: Casein kinase I isoform epsilon (Homo sapiens) (UniProt P49674); assay: Inhibition of CK1 epsilon1 (unknown origin) at 1 uM
[32] = target: Calcium/calmodulin-dependent protein kinase kinase 2 (Homo sapiens) (UniProt Q96RR4); assay: Inhibition of CAMKK2 (unknown origin) at 1 uM
[33] = target: Tyrosine-protein kinase ZAP-70 (Homo sapiens) (UniProt P43403); assay: Inhibition of ZAP-70 (unknown origin) at 1 uM
[34] = target: Tyrosine-protein kinase Fes/Fps (Homo sapiens) (UniProt P07332); assay: Inhibition of Fes (unknown origin) at 1 uM
[35] = target: Leucine-rich repeat serine/threonine-protein kinase 2 (Homo sapiens) (UniProt Q5S007); assay: Inhibition of LRRK2 (unknown origin) at 1 uM
[36] = target: Dual specificity mitogen-activated protein kinase kinase 1 (Homo sapiens) (UniProt Q02750); assay: Inhibition of MEK1 (unknown origin) at 1 uM
[37] = target: Serine/threonine-protein kinase Sgk2 (Homo sapiens) (UniProt Q9HBY8); assay: Inhibition of SGK2 (unknown origin) at 1 uM
[38] = target: Vascular endothelial growth factor receptor 2 (Homo sapiens) (UniProt P35968); assay: Inhibition of KDR (unknown origin) at 1 uM
[39] = target: Serine/threonine-protein kinase 4 (Homo sapiens) (UniProt Q13043); assay: Inhibition of MST1 (unknown origin) at 1 uM
[40] = target: Serine/threonine-protein kinase SIK2 (Homo sapiens) (UniProt Q9H0K1); assay: Inhibition of SIK2 (unknown origin) at 1 uM
[41] = target: LIM domain kinase 1 (Homo sapiens) (UniProt P53667); assay: Inhibition of LIMK1 (unknown origin) at 1 uM
[42] = target: Inhibitor of nuclear factor kappa-B kinase subunit epsilon (Homo sapiens) (UniProt Q14164); assay: Inhibition of IKKepsilon (unknown origin) at 1 uM
[43] = target: Protein-tyrosine kinase 6 (Homo sapiens) (UniProt Q13882); assay: Inhibition of Brk (unknown origin) at 1 uM

Sequence of Tyrosine-protein kinase Fgr (P09769 2-529 limits assumed): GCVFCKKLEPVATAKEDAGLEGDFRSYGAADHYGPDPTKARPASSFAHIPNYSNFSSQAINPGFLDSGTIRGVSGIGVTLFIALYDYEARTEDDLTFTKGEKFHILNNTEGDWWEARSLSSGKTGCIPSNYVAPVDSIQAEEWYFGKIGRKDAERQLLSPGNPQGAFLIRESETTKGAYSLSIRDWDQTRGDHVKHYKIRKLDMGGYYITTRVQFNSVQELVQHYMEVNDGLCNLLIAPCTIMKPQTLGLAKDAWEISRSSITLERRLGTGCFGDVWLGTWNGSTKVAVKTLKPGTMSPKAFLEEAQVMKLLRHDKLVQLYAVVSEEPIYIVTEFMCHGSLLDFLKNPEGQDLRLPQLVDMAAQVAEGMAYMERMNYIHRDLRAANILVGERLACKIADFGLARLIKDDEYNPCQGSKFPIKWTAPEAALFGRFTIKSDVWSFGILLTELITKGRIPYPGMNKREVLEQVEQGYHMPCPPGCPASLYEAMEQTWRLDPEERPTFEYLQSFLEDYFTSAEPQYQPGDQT
Sequence of Serine/threonine-protein kinase 16 (Homo sapiens) (O75716 whole entry): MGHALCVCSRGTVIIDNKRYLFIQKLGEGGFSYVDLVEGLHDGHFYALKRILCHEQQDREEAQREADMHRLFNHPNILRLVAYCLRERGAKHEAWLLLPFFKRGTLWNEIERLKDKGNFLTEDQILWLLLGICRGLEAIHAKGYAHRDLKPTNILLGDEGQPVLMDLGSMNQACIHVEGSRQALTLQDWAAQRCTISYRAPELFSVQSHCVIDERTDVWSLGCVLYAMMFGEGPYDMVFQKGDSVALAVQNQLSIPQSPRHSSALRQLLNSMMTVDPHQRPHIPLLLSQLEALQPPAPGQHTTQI
Sequence of Serine/threonine-protein kinase PAK 3 (Homo sapiens) (O75914 whole entry, looked up): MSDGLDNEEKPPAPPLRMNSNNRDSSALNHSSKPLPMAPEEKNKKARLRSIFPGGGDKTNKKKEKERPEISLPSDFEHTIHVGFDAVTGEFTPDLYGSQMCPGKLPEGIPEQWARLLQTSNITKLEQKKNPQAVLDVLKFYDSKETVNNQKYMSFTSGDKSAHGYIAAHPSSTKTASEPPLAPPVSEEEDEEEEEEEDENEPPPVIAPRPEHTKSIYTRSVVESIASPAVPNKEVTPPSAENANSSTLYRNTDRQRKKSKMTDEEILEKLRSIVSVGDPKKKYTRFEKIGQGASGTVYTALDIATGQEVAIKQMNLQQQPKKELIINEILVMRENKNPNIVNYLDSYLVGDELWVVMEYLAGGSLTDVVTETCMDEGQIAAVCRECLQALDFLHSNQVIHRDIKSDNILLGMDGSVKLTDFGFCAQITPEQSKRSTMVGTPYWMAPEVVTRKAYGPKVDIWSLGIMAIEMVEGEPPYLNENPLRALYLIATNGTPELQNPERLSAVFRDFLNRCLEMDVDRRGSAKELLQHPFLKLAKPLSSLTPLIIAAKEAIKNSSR
Sequence of MAP kinase-activated protein kinase 2 (Homo sapiens) (P49137 whole entry, looked up): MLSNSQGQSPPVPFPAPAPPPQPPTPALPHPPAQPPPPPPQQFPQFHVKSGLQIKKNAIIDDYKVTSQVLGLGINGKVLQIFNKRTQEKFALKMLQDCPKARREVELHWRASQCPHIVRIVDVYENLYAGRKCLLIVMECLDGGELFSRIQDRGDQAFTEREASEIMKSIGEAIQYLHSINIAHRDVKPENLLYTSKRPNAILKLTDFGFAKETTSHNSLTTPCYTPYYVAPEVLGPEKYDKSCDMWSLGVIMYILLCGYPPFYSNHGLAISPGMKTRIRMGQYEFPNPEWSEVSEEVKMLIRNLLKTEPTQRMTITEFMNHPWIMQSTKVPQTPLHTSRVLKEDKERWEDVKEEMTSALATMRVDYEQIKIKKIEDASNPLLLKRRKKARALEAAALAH
Sequence of Dual specificity mitogen-activated protein kinase kinase 1 (Homo sapiens) (Q02750 whole entry): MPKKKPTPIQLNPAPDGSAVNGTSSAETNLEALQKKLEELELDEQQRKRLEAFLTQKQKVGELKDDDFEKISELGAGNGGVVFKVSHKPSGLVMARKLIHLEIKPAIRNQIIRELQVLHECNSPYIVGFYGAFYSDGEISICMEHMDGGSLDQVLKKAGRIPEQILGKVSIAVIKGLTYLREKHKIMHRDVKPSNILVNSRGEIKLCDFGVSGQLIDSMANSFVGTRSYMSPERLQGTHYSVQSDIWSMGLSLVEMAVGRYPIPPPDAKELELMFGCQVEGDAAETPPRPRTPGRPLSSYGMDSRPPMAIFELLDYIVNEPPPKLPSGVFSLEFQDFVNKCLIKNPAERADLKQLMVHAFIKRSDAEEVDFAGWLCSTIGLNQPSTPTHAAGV
Sequence of Serine/threonine-protein kinase SIK2 (Homo sapiens) (Q9H0K1 whole entry, looked up, the tested form may be a part): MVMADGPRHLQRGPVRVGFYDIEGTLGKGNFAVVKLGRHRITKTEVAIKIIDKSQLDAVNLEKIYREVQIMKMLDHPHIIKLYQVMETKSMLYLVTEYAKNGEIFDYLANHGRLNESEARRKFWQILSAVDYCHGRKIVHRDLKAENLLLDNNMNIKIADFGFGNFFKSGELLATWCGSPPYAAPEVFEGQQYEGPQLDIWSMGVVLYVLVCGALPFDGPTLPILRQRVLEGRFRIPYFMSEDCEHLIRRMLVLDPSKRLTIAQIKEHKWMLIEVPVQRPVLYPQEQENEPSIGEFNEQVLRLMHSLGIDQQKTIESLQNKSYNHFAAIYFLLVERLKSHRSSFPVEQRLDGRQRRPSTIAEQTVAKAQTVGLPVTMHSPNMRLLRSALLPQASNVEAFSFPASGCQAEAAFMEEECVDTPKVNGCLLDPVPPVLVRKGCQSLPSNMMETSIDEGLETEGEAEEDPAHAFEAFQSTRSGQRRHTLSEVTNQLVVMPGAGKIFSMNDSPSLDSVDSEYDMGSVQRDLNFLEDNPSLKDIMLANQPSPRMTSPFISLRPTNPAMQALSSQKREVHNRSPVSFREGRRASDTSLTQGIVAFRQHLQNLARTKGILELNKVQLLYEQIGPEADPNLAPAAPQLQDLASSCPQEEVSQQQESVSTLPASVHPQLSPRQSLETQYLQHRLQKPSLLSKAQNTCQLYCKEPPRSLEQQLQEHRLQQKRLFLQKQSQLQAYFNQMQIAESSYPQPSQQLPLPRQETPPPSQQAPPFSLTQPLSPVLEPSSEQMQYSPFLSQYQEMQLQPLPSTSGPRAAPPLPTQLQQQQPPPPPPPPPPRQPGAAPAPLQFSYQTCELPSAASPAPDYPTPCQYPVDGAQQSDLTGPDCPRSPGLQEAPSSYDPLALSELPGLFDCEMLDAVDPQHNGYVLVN
Sequence of Mitogen-activated protein kinase 14 (Homo sapiens) (Q16539 whole entry): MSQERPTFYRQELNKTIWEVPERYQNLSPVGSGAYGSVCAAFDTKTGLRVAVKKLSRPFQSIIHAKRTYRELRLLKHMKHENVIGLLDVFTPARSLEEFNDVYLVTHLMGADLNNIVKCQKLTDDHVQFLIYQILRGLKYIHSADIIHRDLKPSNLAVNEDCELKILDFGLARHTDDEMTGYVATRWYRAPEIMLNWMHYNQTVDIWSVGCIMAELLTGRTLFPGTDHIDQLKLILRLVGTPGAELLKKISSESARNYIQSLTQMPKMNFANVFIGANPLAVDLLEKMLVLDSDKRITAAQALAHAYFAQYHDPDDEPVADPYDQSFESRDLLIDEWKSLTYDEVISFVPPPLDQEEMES
Sequence of Interleukin-1 receptor-associated kinase 1 (Homo sapiens) (P51617 whole entry, looked up): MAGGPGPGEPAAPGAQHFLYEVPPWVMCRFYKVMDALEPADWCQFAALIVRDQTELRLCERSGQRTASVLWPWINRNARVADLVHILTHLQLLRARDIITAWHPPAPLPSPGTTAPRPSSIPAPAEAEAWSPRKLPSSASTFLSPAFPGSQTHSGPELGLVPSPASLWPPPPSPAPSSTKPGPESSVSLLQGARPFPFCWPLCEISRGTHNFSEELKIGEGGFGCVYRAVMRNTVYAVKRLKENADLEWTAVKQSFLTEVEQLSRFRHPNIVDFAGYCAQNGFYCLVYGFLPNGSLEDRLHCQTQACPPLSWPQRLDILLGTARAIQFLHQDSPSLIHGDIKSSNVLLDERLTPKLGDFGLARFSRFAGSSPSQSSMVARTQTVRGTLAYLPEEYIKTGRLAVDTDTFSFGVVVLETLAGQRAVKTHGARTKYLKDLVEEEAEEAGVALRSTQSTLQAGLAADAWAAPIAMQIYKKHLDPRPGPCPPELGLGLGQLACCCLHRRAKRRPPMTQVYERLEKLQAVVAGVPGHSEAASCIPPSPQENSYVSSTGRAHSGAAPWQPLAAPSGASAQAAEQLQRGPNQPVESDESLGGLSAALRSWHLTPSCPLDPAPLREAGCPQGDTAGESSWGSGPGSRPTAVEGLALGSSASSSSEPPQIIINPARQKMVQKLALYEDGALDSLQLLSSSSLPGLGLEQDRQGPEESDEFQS
Sequence of Serine/threonine-protein kinase 25 (Homo sapiens) (O00506 whole entry, looked up): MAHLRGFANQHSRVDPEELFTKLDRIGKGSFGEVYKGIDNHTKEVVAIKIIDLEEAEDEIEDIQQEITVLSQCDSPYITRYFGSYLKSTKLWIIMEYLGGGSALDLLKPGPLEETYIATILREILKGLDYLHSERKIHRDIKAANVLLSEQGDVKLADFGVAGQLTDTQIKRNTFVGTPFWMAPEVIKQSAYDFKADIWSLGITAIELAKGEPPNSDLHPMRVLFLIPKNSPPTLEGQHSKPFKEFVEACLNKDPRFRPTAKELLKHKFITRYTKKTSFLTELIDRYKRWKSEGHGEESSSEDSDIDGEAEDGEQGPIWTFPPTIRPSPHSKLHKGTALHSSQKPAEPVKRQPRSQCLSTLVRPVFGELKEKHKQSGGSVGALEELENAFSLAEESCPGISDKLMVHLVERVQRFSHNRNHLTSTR
Sequence of Dual specificity mitogen-activated protein kinase kinase 6 (Homo sapiens) (P52564 whole entry): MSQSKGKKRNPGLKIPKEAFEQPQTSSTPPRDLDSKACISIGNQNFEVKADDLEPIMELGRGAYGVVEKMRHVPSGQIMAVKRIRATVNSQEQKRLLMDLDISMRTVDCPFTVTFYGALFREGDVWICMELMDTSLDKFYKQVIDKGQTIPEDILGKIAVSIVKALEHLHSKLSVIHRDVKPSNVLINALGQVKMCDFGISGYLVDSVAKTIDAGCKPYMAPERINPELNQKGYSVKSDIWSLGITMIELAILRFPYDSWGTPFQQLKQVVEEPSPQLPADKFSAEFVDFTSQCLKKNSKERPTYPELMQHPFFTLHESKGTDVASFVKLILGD

Molecule `Cc1c(-c2cc(Nc3cc4n(n3)CCN(C)C4)c(=O)[nH]n2)ccc(F)c1NC(=O)c1cc2ccccc2s1` has a CLH (Liver microsome) of 6 mL/min/kg, an EC50 [1] greater than 5 µM and a bioavailability [2] of 34%. It also gave an inhibition [3] of 87.9%, an inhibition [4] of 69.8% and an inhibition [5] of 6.2%. The inhibition [6] was 5.7%, the inhibition [7] was 1.9% and the inhibition [8] was 1.8%. It also gave an IC50 [9] greater than 10 µM, an inhibition at 10 µM (hERG (KCNH2)) of 27% and an inhibition [10] of 3.3%. For the same molecule, the inhibition [11] was 3.2%, the inhibition [12] was 3% and the inhibition [13] was -3.4%. It also gave an inhibition [14] of -3.8%, an inhibition [15] of 3% and an inhibition [16] of 2.9%. It also gave an inhibition [17] of 2.5%, an inhibition [18] of 2.4% and an inhibition [19] of 2.2%. The inhibition [20] was 2%, the inhibition [21] was 1% and the inhibition [22] was 1%. The inhibition [23] was 0.8%, the inhibition [24] was 0.8% and the inhibition [25] was -0.4%. It also gave an inhibition [26] of -2.2%, an inhibition [27] of 14.6% and an inhibition [28] of 11%. It also gave an inhibition [29] of 10.8%, an inhibition [30] of 10.3% and an inhibition [31] of 8.6%. It also gave an inhibition [32] of 8.2%, an inhibition [33] of 8.1% and an inhibition [34] of 7.2%. It also gave an inhibition [35] of 4.7%, an inhibition [36] of 4.5% and an inhibition [37] of -2.3%. The inhibition [38] was -2.4%, the inhibition [39] was -2.6% and the inhibition [40] was -3.9%. It also gave an inhibition [41] of -5.5%, an inhibition [42] of -5.8% and an inhibition [43] of 3.5%.
